Assay results published in a compilation of properties of binary mixtures (doi:10.1016/j.molliq.2017.12.017).

Assay: xn = mol fraction of the nth substance listed
Conditions: 101 kPa

COCCO + CC[n+]1ccn(C)c1.O=S(=O)([O-])C(F)(F)F
x2 = 0
Conditions	speed of sound [m/s]
298.15 K	1342.3
308.15 K	1308.2
313.15 K	1290.8
318.15 K	1273.6

CC[n+]1ccn(C)c1.O=S(=O)([O-])C(F)(F)F + COCCO
speed of sound [m/s]
Conditions	298.15 K	303.15 K	308.15 K	313.15 K	318.15 K
x1 = 0.0531	1359	–	1327	1310.8	1294.7
x1 = 0.1062	1367	1351.6	1336.4	–	1305.4
x1 = 0.1999	–	1365.9	1351.6	1337.2	–
x1 = 0.2935	1392	1378.7	–	1351.8	1338.3
x1 = 0.3958	1403.5	1390.9	1378.3	1365.7	–
x1 = 0.4452	–	1396.2	1383.9	1371.6	1359.3
x1 = 0.5036	1413.9	1402	1390	1378	1366.1
x1 = 0.5752	1419.9	1408.2	1396.6	1385	–
x1 = 0.6452	–	1413.5	1402.1	1390.8	1379.4
x1 = 0.7142	1429.2	1417.9	1406.7	1395.5	1384.3
x1 = 0.8049	–	1422.5	1411.3	–	1389.2
x1 = 0.8751	1436.5	1425.1	1413.9	1402.8	1391.8
x1 = 0.9522	–	1427	1415.7	1404.5	–
x1 = 1	1435.8	–	1413.5	1402.4	1391.4
